{"source": "patent US10273263B2", "about": "“Pro-drug forming compounds” (priority 2013, dated 2019)", "key": {"[1]": {"test": "oral biological activity: % uterine weight increase compared to vehicle", "format": "in vivo, rat", "settings": "Rattus norvegicus; oral, 30.0 μg", "method": "Exemplary compounds were tested for: oral biological activity (Table 1); binding to human carbonic anhydrase II (hCA 2) (Table 2); and, for some compounds enzymatic saponification (Table 3)."}, "[2]": {"target": "human carbonic anhydrase II (hCA 2) (Homo sapiens, UniProt P00918)", "test": "Human Carbonic Anhydrase II inhibition", "format": "biochemical", "settings": "read-out: hCAII (IC50 nM)"}, "[3]": {"test_system": "ovarectomized female rats", "settings": "compared with estradiol and ethinyl estradiol; cited from earlier work"}, "[4]": {"target": "T1, sulfatase (Homo sapiens, UniProt P08842)", "T1 construct": "host or cells: in vivo, women", "T1 sequence (P08842 22-583)": "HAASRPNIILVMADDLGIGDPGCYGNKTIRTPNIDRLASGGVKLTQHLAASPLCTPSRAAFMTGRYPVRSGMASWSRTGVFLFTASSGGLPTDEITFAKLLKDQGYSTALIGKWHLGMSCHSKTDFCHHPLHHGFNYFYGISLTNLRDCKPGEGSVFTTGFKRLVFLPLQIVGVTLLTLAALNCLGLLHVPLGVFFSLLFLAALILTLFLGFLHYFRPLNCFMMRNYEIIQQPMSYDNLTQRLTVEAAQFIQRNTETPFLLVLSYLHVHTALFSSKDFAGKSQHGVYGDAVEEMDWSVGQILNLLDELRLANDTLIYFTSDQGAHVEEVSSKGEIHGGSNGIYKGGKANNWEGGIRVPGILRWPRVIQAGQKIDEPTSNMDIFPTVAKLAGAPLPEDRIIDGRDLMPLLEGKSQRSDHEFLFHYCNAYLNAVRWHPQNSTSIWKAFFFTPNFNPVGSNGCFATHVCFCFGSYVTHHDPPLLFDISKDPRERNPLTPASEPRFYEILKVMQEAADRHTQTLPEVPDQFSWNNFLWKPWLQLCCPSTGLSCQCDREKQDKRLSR", "settings": "in women; cited from earlier work"}}}
{"smiles": "C[C@]12CCC3c4ccc(OS(N)(=O)=O)cc4CCC3C1CC[C@@H]2O", "note": "(stereo partly drawn) [Compound J995, (13S,17S)-17-hydroxy-13-methyl-7,8,9,11,12,13,14,15,16,17-decahydro-6H-cyclopenta[a]phenanthren-3-yl sulfamate, reference compound]", "values": [{"measurement": "change in vivo at 0.03 mg", "setting": "[1]", "value": 203, "unit": "%"}, {"measurement": "IC50", "setting": "[2]", "value": 295, "unit": "nM"}, {"measurement": "estrogenic activity after oral administration", "setting": "[3]", "value": "higher estrogenic activity after oral administration than estradiol and ethinyl estradiol"}, {"measurement": "inhibition of sulfatase", "setting": "[4]", "value": "acted as an inhibitor of sulfatase"}]}
